Experimental data: ChEMBL document CHEMBL1157139, “A structural analysis of the differential cytotoxicity of chemicals in the NCI-60 cancer cell lines” (2008)

Columns and labels:
Format in all cases: functional
NCI-H23 = experiment: Cytotoxicity against human NCI-H23 cells; details: for CC50: read-out: pLC50 (the source's name) (converted); for TGI: read-out: pTGI (converted)
NCI-H522 = experiment: Cytotoxicity against human NCI-H522 cells; details: for TGI: read-out: pTGI (converted)
A549 = experiment: Cytotoxicity against human A549 cells; details: for GI50: A549; for CC50: A549, read-out: pLC50 (converted); for TGI: A549, read-out: pTGI (converted)

| Structure (SMILES) | GI50 (NCI-H23) [µM] | CC50 (NCI-H23) [µM] | TGI (NCI-H23) [µM] | GI50 (NCI-H522) [nM] | TGI (NCI-H522) [nM] | GI50 (A549) [µM] | CC50 (A549) [µM] | TGI (A549) [µM] |
| --- | --- | --- | --- | --- | --- | --- | --- | --- |
| O=C(O)c1ccccn1 [2-PICOLINIC ACID] | 61.8 | 88.5 | 74 | 693 | 1050 | 65.2 | > 100 | 82 |
| C[C@@H]1C[C@@H]([C@H](O)CC2CC(=O)NC(=O)C2)C(=O)[C@@H](C)C1 [CYCLOHEXIMIDE] | > 100 | > 100 | > 100 | > 100000 | > 100000 | > 100 | > 100 | > 100 |
